# “Also recorded” adds a separate entry of the source.
# Assays:
# Type in all cases: in vivo, mice
# [1] = tested on: mTOR pathway; experiment: Western blot of P70S6 and pP70S6 in corneal epithelium, disepithelization model (Example 1)
# Protocol: (§1) Eight-week-old C57BL6/N (Charles River, Calco, Italy) (WT mice, n=8) and B6.Cg-Tac1tm1Bbm/J (Jackson Laboratories, Bar Harbor, Me., USA) (TAC1-KO mice, n=8) male mice were used in all experiments. Each animal was anesthetized with intraperitoneal injection of tribromoethanol (250 mg/kg) and a topical anesthetic was applied to their ocular surface prior to the surgical procedure. Disepithelization was performed based on the model previously described, using a blunt spatula to scrap the entire corneal epithelium from limbus to limbus. After wounding, eyes were treated with ophthalmic moxifloxacin 1 time/day for 1 week to […]. Fourteen days after disepithelization mice were euthanized using carbon dioxide inhalation and subsequent cervical dislocation. Corneas were collected for immunostaining and western blot analysis. All experimental protocols were approved by the Animal Care and Use Committee of the Istituto di Ricovero e cura a Carattere Scientifico San Raffaele Scientific Institute, in accordance with the ARVO Statement for the Use of Animals in Ophthalmic and Vision Research.
# To evaluate the pharmacological inhibition of Substance P, an additional group of mice (WT-FOSA, n=6) received Fosaprepitant 10 mg/mL (IVEMEND, Merck Sharp & Dohme Ltd., Hoddes-don, UK) dissolved in a total volume of 10 μL phosphate-buffered saline (PBS, Sigma-Aldrich, St. Louis, Mo., USA) or 10 μL of vehicle as control, topically four times a day in both eyes for 14 days. The treatments started 1 day after corneal dispepithelization.
# (§2) For Western Blot analysis, corneal epithelium was isolated after 30 minutes of EDTA treatment (Sigma-Aldrich Corp., St. Louis, Mo., USA) at 37° C. […] Bands were quantified using Image Lab™ software (Version 6.0.1, Bio-Rad Laboratories, Hercules, Calif., USA).
# (§3) The expression of p70 S6 Kinase (P70S6), phospho-p70 S6 Kinase (pP70S6), and phospho-histone 2-AX (γH2AX) was evaluated by Western Blot, as previously described in section 2.9. […] Bands were quantified using Image J software (National Institutes of Health, Bethesda, Md., USA).
# [2] = tested on: γH2AX; experiment: Western blot of γH2AX as senescence marker in corneal epithelium, disepithelization model (Example 1)
# Protocol: as §1, with “All experimental protocols were approved by the Animal Care and Use Committee of the Istituto di Ricovero e cura a Carattere Scientifico San Raffaele Scientific Institute, in accordance with the ARVO Statement for the Use of Animals in Ophthalmic and Vision Research.” left out
# as §2, §3
# [3] = tested on: goblet cells; experiment: Goblet cell identification by PAS staining in the cornea, stem cell deficiency model; settings: Fosaprepitant 1 mg/mL (FOSA 1); p<0.05
# Source text: Eight-week-old male mice C57BL6/N (Charles River, Calco, Italy) (WT mice, n=18) and Tac1-deficient B6.Cg-Tac1tm1Bbm/J (Jackson Laboratories, Bar Harbor, Me., USA) (TAC1-KO mice, n=18) were used in all experiments. TAC1-KO mice are homozygous null for the Tac1 gene. […] The corneal thickness and transparency as well as the corneal nerve length are similar to C57BL/6 mice [Barbariga M, Rabiolo A, Fonteyne P, Bignami F, Rama P, Ferrari G. The effect of aging on nerve morphology and substance P expression in mouse and human corneas. Investig Ophthalmol Vis Sci 2018; 59:5329-35. https://doi.org/10.1167/iovs.18-24707.]. Each animal was anesthetized with an intraperitoneal injection of tribromoethanol (250 mg/kg) and a topical anesthetic was applied to their ocular surface prior to the surgical procedure. […]
# To identify the presence of goblet cells, periodic acid Schiff (PAS) staining was performed following the same experimental protocol previously described [Ferrari G, Bignami F, Giacomini C, Franchini S, Rama P. Safety and efficacy of topical infliximab in a mouse model of ocular surface scarring. […] The number of PAS+ cells was quantified using Image J software (National Institutes of Health, Bethesda, Md., USA), and the results were expressed as PAS+ cells per section.
# [4] = Fosaprepitant 10 mg/mL (WT-FOSA), western blot
# [5] = Fosaprepitant 10 mg/mL topically four times a day for 14 days (WT-FOSA), p<0.05
smiles,measurement,setting,value
"C[C@@H](O[C@H]1OCCN(Cc2nc(=O)n(P(=O)(O)O)[nH]2)[C@H]1c1ccc(F)cc1)c1cc(C(F)(F)F)cc(C(F)(F)F)c1 [Fosaprepitant, [3-{[(2R,3S)-2-[(1R)-1-[3,5-bis(trifluoromethyl)phenyl]ethoxy]-3-(4-fluorophenyl)morpholin-4-yl]methyl}-5-oxo-2H-1,2,4-triazol-1-yl]phosphonic acid]",pP70S6 expression compared to WT (in words),[1]; [4],significant decrease
same,ratio between pP70S6 and P70S6 expression (mTOR pathway activation) compared to WT,[1]; Fosaprepitant 10 mg/mL topically four times a day for 14 days (WT-FOSA),significant decrease
same,decrease in pP70S6 expression compared to WT,[1]; [5],38%
same,H2AX expression in comparison to WT (in words),[2]; [4],decreased
same,decreased γH2AX expression in comparison to WT,[2]; [5],26%
same,PAS+ cells (goblet cells) in the cornea compared to WT,[3],Reduced number; also recorded: decrease

# From US20230134843A1, “TREATMENT OF STEM CELL DEFICIENCY” (OSPEDALE SAN RAFFAELE S.R.L., priority 2020, published 2023)
